From patent publication US20210363110A1, “4-METHYLDIHYDROPYRIMIDINONE COMPOUNDS AND PHARMACEUTICAL USE THEREOF” (Japan Tobacco Inc., priority 2018, published 2021)

Columns and labels:
[1] = tested on: IL-17 production in plasmas; assay: IL-17 production in plasmas of cytokine-stimulated normal mice; type: in vivo, C57BL/6J mice; conditions: 0.1 mg/mL suspension, 0.2 mL/head orally, single, 28 hours before IL-1 beta/IL-23 i.v.; blood 2 hours after cytokine
Method: Effects of test substances on IL-17 production in plasmas were assessed in normal mice. The assessment was performed according to Non Patent Literature 32. Nine-week old female C57BL/6J mice (Japan Charles River K. K.) were used as a test animal.
A mixed solution prepared by mixing Recombinant Mouse IL-1 beta/IL-1F2 Protein (R&D systems, INC.) and Recombinant Mouse IL-23 Protein (R&D systems, INC.) at a final concentration of 1.5 μg/mL was administered intravenously to all groups at the tail vein at a volume of 200 μL/head. Blood was collected 2 hours after the administration of cytokine solution.
Administration was performed 28 hours before the administration of cytokine solution. 0.5% (w/v) methyl cellulose (MC) and 0.1 mg/mL of a test substance suspended in 0.5% (w/v) MC were administered orally at a single volume of 0.2 mL/head to Vehicle group and a compound-administered group, respectively.
Blood was separated by centrifugation, and then the IL-17 concentration in plasma was measured with Quantikine (Registered trade mark) Mouse IL-17 ELISA Kit (R&D systems, Inc.).
The IL-17 concentration of Vehicle group was deemed to be 100%, and the IL-17 concentration percentage of the compound-administered group to the Vehicle group was calculated from the following equation.
%=a/b×100 a: IL-17 concentration of the compound-administered group b: IL-17 concentration of the Vehicle group

[2] = Metabolic stability in liver microsomes, dog; type: in vitro ADME; conditions: residual ratio of unreacted substance, 0.2 mg/mL microsomes, NADPH generating system
Method: A test solution was prepared by diluting 10 mM DMSO solution of a test substance with acetonitrile by 100 times.
Human and animal liver microsomes (SEKISUI XENOTECH; Human (H2610), Rat (R1000), Mouse (M1000), Monkey (P2000), Dog (D1000)) were adjusted with potassium phosphate buffer (pH 7.4) to 0.2 mg/mL in the reaction system. Then, 1% of the solution of a test substance prepared was added to the reaction system. Thereto was added an NADPH generating system (prepared according to the method of Non Patent Literature 28), and the metabolic reaction was initiated. At a designated time, 0.1% formic acid-acetonitrile/water (3:1) was added thereto, and the reaction was terminated.
The sample after termination of the reaction was separated by centrifugation (1400 g, 20 min.), and then the supernatant was measured by LC/MS (UPLC-SQD (waters)) to calculate a residual ratio of unreacted substances.

Metabolic stability in liver microsomes at 60 min., Dog [2] [%]	Structure (SMILES)	IL-17 concentration (%) relative to Vehicle group [1] [%]
98	CC(C)C1=CN(C23CC(C(=O)O)(C2)C3)C(=O)N[C@@]1(C)c1ccc([C@@H]2C[C@H]2C(C)(C)C)c(Cl)c1 [Compound (1), 3-{(S)-4-[4-((1R,2R)-2-tert-Butyl-cyclopropyl)-3-chloro-phenyl]-5-isopropyl-4-methyl-2-oxo-3,4-dihydro-2H-pyrimidin-1-yl}bicyclo[1.1.1]pentane-1-carboxylic acid]	52
95	CC[C@H](C)C1=CN(C23CC(C(=O)O)(C2)C3)C(=O)N[C@@]1(C)c1ccc([C@@H]2C[C@H]2C(C)(C)C)c(Cl)c1 [Compound (2), 3-{(S)-5-((S)-sec-Butyl)-4-[4-((1R,2R)-2-tert-butyl-cyclopropyl)-3-chloro-phenyl]-4-methyl-2-oxo-3,4-dihydro-2H-pyrimidin-1-yl}bicyclo[1.1.1]pentane-1-carboxylic acid]	67
